Measurements reported in patent US10799545B2, “Transdermal delivery of cannabidiol with other active moieties including cannabinoids” (LIFE TECH GLOBAL, LLC, priority 2016, dated 2020).
Entries after “also recorded” stand apart in the source; their conditions may differ.

What was measured:
[1] = Franz Diffusion Cell, CBD flux from reservoir transdermal device through human cadaver epidermis; format: in vitro ADME
Protocol: The effects of using a hydrophobic, porous membrane versus a hydrophilic, porous membrane (such as membrane 24) in reservoir transdermal device 20 are studied in this example. A mixture is formed by dissolving CBD powder in ethanol to yield a solution comprising 10 percent by weight CBD and 90 percent by weight ethanol. The backing 22 is an occlusive backing film (PE/PET from 3M). Hydroxy ethyl cellulose is added to the solution to yield a thixotropic preparation 27. A volume of 300 μL of the preparation is placed in the reservoir 26.
The skin adhesive 30 is a BIO PSA 7-4301 adhesive coated to a thickness of 15 g/m^2 on side 36 of membrane 24. An overlay adhesive patch is placed over the reservoir which forms an island in the middle. The overlay assures adhesion of the reservoir to the skin. The device 20 is contacted with a human cadaver epidermis, and diffusion through the epidermis is measured using the Franz Diffusion Cell method.
In a first run, membrane 24 is a Lydall® Evopor™ 5E02A, hydrophilic, microporous membrane (of 0.2 μm pore size). In a second run, the device 20 is constructed similarly, but membrane 24 is a hydrophobic Lydall® Solupor™ 7P03A porous membrane.
The reservoir device 20 of Example 1 is used, but instead of using ethanol alone as the liquid carrier, a mixture of ethanol and water is used wherein the ethanol comprises 70 percent by weight of the ethanol/water mixture, and water comprises 30 percent by weight of the ethanol/water mixture. The amount of CBD by weight of the combination of CBD and ethanol/water is 5 percent, and the amount of ethanol/water is 91.5 percent. The gelling agent is hydroxyethylcellulose, which is present in an amount of about 3.5% by weight of the preparation 27. […]
The device 20 is contacted with a human cadaver epidermis, and diffusion through the epidermis is measured using the Franz Diffusion Cell method. In a first run, the hydrophilic, porous membrane 24 of Example 1 is used. In a second run, the membrane 24 is omitted so that CBD diffuses directly through the skin adhesive 30.
This example is conducted using three reservoir transdermal devices such as those of Example 1, with each having the hydrophilic, porous membrane described therein. In each case, the preparation includes a mixture of CBD and a liquid carrier with ten (10) percent CBD by weight of the CBD/liquid carrier mixture. Three runs are conducted, each with a device that includes a different liquid carrier in its preparation 27: 1, 2 propylene glycol, PEG-300, and oleic acid. Diffusion through a human cadaver epidermis is measured using the Franz Diffusion Method.
This example is similar to Example 3, except that an ethanol carrier is also tested. As stated above, FIG. 6 is a graph depicting the cumulative flux (μg/cm^2) of CBD through a human cadaver epidermis over a six hour period from solutions comprising ten (10) percent by weight CBD and 90 percent by weight of one of four liquid carriers.

[2] = Franz Diffusion Cell, CBD flux from monolithic adhesive patch through human cadaver skin; format: in vitro ADME; conditions: monolithic patches: Vistanex LM 5% or 10% CBD, DuroTak 87-2516 10% CBD, BIO PSA 7-4302 5% CBD (FIG. 7)
Protocol: Formulations of monolithic patches were prepared by solubilizing CBD in different adhesives and CBD transdermal flux was performed through human cadaver skin using Franz Diffusion Cell method. We found the highest transdermal flux of CBD from a formulation that comprises PIB adhesive and 10% CBD.
A monolithic transdermal device 40 is constructed using a matrix 44 of pure CBD and three different adhesives. A first device 40 includes a PE/PET backing and a matrix 44 comprising 95 percent Vistanex) LM polyisobutylene adhesive by weight of matrix 44 mixed with 5 percent substantially pure CBD by weight of matrix 44. A second device is similarly constructed, but the amount of CBD in the matrix 44 is 10 percent by weight of the matrix 44, and the amount of Vistanex LM is 90 percent by weight of the matrix 44. A third patch is constructed using a DuroTak 87-2516 adhesive in an amount of 90 percent by weight of matrix 44 and 10 percent CBD by weight of matrix 44, and a fourth patch is constructed using a BIO PSA 7-4302 adhesive in an amount of 95 percent by weight of matrix 44 and 5 percent CBD by weight of matrix 44.

[3] = 10% CBD / 90% liquid carrier, six hour period (FIG. 6)

C=C(C)[C@@H]1CCC(C)=C[C@H]1c1c(O)cc(CCCCC)cc1O [CBD, Cannabidiol]
permeability of CBD through the skin, with versus without membrane 24 ([1]; 5% CBD in ethanol/water 70/30, hydrophilic porous membrane used or omitted (FIG. 4)): the same
cumulative flux of CBD, hydrophilic membrane device versus hydrophobic membrane device ([1]; 10% CBD / 90% ethanol, hydrophilic Evopor 5E02A membrane, after about 9 hours (FIG. 3)): significantly exceeds
rate of transfer of CBD through the skin, oleic acid versus 1,2 propylene glycol or PEG-300 ([1]; 10% CBD / 90% liquid carrier, hydrophilic membrane, six hour period (FIG. 5)): significantly better
transfer of CBD through the skin, ethanol relative to 1,2 propylene glycol and PEG-300 [1, 3]: superior
transfer of CBD through the skin, oleic acid relative to ethanol, 1,2 propylene glycol and PEG-300 [1, 3]: superior
expected daily dose, reservoir device relative to monolithic patch of the same skin contact area ([1]; 20 cm^2 skin contact area): six times higher
cumulative flux of cannabidiol (CBD) ([1]; reservoir device, 5% by weight CBD and 70% by weight ethanol liquid carrier, at 12 hours): 110 micrograms/cm^2
cumulative flux of cannabidiol (CBD) ([1]; reservoir device, 5% by weight CBD and 70% by weight ethanol liquid carrier, at 24 hours): 300 micrograms/cm^2
cumulative flux of CBD, asymptotic value ([1]; reservoir device, 10% CBD / 90% ethanol, hydrophobic Solupor 7P03A porous membrane (FIG. 3)): about 300 μg/cm^2
cumulative flux of cannabidiol (CBD) ([1]; reservoir device, 10% by weight CBD and 90% by weight ethanol liquid carrier, hydrophilic porous membrane, at 7 hours): 150 micrograms/cm^2
cumulative flux of cannabidiol (CBD) ([1]; reservoir device, 10% by weight CBD and 90% by weight ethanol liquid carrier, hydrophilic porous membrane, at 17 hours): 700 micrograms/cm^2
cumulative flux of cannabidiol (CBD) ([1]; reservoir device, 10% by weight CBD and 90% by weight oleic acid, over six hours): 180 micrograms/cm^2
cumulative flux of cannabidiol (CBD) ([1]; reservoir device, ethanol liquid carrier, over 6 hours): 70 micrograms/cm^2
transdermal delivery of CBD from saturated ethanol solution versus monolithic patch ([1]; reservoir patch formulation): significantly higher
transdermal flux of CBD, PIB (Vistanex LM) adhesive / 10% CBD relative to the other monolithic formulations [2]: superior; also recorded: highest
